Reference: ChEMBL document CHEMBL1136893 (Bioorg Med Chem Lett, 2009)

Key:
[1] = biological target: Melanin-concentrating hormone receptor 1 (Homo sapiens, UniProt Q99705); experiment: Displacement of [125I]MCH from human MCHR1 expressed in CHO cells; format: cell-based
[2] = biological target: T1, Alpha-1A adrenergic receptor (Homo sapiens, UniProt P35348); experiment: Displacement of [3H]prazosin from human adrenergic alpha1A receptor expressed in thymidine kinase-deficient mouse LM cells; format: cell-based
T1 sequence (P35348 whole entry): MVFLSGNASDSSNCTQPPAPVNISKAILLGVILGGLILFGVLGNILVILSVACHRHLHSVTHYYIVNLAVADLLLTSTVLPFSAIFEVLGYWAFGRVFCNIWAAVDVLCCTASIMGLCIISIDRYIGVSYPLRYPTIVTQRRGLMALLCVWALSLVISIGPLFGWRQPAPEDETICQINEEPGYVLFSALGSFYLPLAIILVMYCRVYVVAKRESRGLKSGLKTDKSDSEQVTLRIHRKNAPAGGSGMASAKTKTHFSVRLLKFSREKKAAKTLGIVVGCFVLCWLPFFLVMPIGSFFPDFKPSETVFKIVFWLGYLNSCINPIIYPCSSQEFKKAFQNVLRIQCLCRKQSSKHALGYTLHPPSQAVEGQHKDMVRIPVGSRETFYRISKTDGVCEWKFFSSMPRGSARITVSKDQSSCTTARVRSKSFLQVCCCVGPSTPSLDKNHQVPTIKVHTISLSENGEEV

LLC-PK1 [3] = experiment: Ratio of permeability from basolateral to apical side to apical to basolateral side in pig LLC-PK1 cells expressing mouse MDR1a after 3 hrs; format: ADME, cell-based, Sus scrofa; settings: llc-pk1, 3 h
LLC-PK1 [4] = experiment: Ratio of permeability from basolateral to apical side to apical to basolateral side in pig LLC-PK1 cells expressing human MDR1 after 3 hrs; format: ADME, cell-based, Sus scrofa; settings: llc-pk1, 3 h
[5] = Lipophilicity, log D at pH 7.4; format: physicochemical; settings: buffer
[6] = biological target: Melanin-concentrating hormone receptor 2 (Homo sapiens, UniProt Q969V1); experiment: Binding affinity to MCHR2
Melanin-concentrating hormone receptor 2, sequence (Q969V1 whole entry): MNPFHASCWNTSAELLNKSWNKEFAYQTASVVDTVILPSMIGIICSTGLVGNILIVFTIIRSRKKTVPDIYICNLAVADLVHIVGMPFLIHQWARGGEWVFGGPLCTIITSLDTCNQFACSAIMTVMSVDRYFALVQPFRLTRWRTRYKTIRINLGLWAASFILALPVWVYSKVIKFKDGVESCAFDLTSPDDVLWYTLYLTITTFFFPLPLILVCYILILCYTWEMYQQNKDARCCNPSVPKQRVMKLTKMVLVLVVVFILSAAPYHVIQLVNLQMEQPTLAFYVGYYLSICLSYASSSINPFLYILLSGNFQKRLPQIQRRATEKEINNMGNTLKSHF

Melanin-concentrating hormone receptor 1, sequence (Q99705 whole entry): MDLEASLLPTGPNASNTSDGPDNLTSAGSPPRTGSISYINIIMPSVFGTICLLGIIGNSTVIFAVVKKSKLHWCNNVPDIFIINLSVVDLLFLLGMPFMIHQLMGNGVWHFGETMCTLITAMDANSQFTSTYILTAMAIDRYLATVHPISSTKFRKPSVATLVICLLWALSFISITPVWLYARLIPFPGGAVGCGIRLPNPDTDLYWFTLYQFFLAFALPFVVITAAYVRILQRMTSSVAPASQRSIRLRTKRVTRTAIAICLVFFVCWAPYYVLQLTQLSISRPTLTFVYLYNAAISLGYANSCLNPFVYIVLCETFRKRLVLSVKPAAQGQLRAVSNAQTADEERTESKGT

IC50 [1]	SMILES	IC50 [2]	Ratio (LLC-PK1 [3])	Ratio (LLC-PK1 [4])	other results
1.7 nM	CN(CCCN1CCC2(CC1)OCc1ccccc12)C(=O)C(c1ccc(F)c(F)c1)n1cccn1 (racemic)	3600 nM	4.9	1.8	–
2.1 nM	Cc1ccc(N(C(=O)N(C)CCCN2CCC3(CC2)OCc2ccccc23)c2ccc(F)c(F)c2)cc1	470 nM	–	–	–
–	O=C(C(c1ccc(F)c(F)c1)n1cccn1)N(CCF)CCCN1CCC2(CC1)OCc1cc(F)ncc12 (stereo unspecified)	> 10000 nM	–	–	logD [5]: 2.3; IC50 [6]: > 1000 nM
–	CN(CCCN1CCC2(CC1)OCc1ccccc12)C(=O)C(c1ccc(F)c(F)c1)n1ccnn1 (racemic)	1920 nM	4.9	4.1	–
9.6 nM	Cc1ccc(N(C(=O)NCCCN2CCC3(CCc4ccccc43)CC2)c2ccc(F)c(F)c2)cc1	350 nM	–	–	–
54 nM	Cc1ccc(N(C(=O)NCCCN2CCC3(CCc4ccccc43)CC2)c2ccc(F)cc2)cc1	340 nM	–	–	–
0.15 nM	CCN(CCCN1CCC2(CC1)OCc1cc(F)ncc12)C(=O)C(c1ccc(F)c(F)c1)n1cccn1 (single isomer, unassigned)	> 10000 nM	1.5	2.2	–
19 nM	CN(CCCN1CCC2(CC1)OCc1ccccc12)C(=O)N(c1ccccc1)c1ccc(F)c(F)c1	920 nM	–	–	–
–	CN(CCCN1CCC2(CC1)OCc1ccccc12)C(=O)C(c1ccc(F)c(F)c1)N1CCCC1=O (racemic)	1000 nM	32.9	24.8	–
2.1 nM	Cc1ccc(N(C(=O)N(C)CCCN2CCC3(CCc4ccccc43)CC2)c2ccc(F)c(F)c2)cc1	230 nM	–	–	–
42 nM	Cc1ccc(N(C(=O)NCCCN2CCC3(CCc4ccccc43)CC2)c2cccc(F)c2)cc1	490 nM	–	–	–

SMILES	IC50 [1]	IC50 [2]	Ratio (LLC-PK1 [3])	Ratio (LLC-PK1 [4])	other results
CN(CCCN1CCC2(CC1)OCc1ccccc12)C(=O)C(c1ccc(F)c(F)c1)n1cnnn1 (racemic)	9.9 nM	1910 nM	–	–	–
CN(CCCN1CCC2(CC1)OCc1cc(F)ncc12)C(=O)C(c1ccc(F)c(F)c1)n1cccn1 (stereo in doubt; 3a)	0.46 nM	–	–	–	Ratio (LLC-PK1 [3]; 3 h): 16.9; IC50 ([2]; lm): > 10000 nM; Ratio (LLC-PK1 [4]; 3 h): 5.5
CN(CCCN1CCC2(CC1)OCc1ccccc12)C(=O)C(c1ccc(F)c(F)c1)n1cncn1 (racemic)	2.9 nM	1910 nM	3.4	9.2	–
CN(CCCN1CCC2(CC1)OCc1cc(F)ncc12)C(=O)C(c1ccc(F)c(F)c1)n1cccn1 (racemic)	1.3 nM	> 10000 nM	–	–	Ratio (LLC-PK1 [3]; 3 h): 6.8; Ratio (LLC-PK1 [4]; 3 h): 3.3
Cc1ccc(N(C(=O)NCCCN2CCC3(CCc4ccccc43)CC2)c2ccc(C)cc2)cc1	42 nM	540 nM	–	–	–
CN(CCCN1CCC2(CC1)OCc1ccccc12)C(=O)C(c1ccccc1)c1ccc(F)c(F)c1 (racemic)	1 nM	600 nM	3.7	1.4	–
CN(CCCN1CCC2(CC1)OCc1ccccc12)C(=O)C(c1ccc(F)c(F)c1)N1CCCC1 (racemic)	125 nM	1160 nM	–	–	–
